{"source": "patent US5677326A", "about": "“Indoline compound and 5-HT3 receptor antagonist containing the same as active ingredient” (Tokyo Tanabe Company Limited, priority 1993, dated 1997)", "key": {"[1]": {"target": "T1, 5-HT3 receptors in the heart (Rattus norvegicus, UniProt P35563)", "T1 construct": "from tissue; host or cells: living anesthetized male SD rats (in vivo)", "T1 sequence (P35563 24-483)": "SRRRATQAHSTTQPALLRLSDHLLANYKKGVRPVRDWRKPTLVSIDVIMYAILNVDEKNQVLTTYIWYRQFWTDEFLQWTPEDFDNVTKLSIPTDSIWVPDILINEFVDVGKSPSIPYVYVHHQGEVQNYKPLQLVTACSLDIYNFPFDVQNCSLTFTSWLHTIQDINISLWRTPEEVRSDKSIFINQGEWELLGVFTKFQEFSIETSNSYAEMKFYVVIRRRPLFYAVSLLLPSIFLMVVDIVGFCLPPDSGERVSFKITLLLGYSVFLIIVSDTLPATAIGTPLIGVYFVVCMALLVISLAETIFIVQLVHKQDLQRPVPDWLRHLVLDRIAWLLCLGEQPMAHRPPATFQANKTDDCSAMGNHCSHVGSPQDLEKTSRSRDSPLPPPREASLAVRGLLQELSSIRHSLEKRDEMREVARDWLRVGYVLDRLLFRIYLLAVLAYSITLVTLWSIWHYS", "experiment": "Antagonism against Von Bezold-Jarisch reflex (BJ reflex)", "type": "in vivo, SD rats", "settings": "iv, 5 min before serotonin 30 μg/kg, read-out: ID50 (the source's name)", "description": "Antagonism against Von Bezold-Jarisch reflex (BJ reflex):\nThe pulse was determined by measuring the electrocardiogram R waves (secondary induction) with an instantaneous pulse rate meter."}, "[2]": {"target": "T2, Intestinal 5-HT3 receptor (Cavia porcellus, UniProt O70212)", "T2 sequence (O70212 24-490 limits assumed)": "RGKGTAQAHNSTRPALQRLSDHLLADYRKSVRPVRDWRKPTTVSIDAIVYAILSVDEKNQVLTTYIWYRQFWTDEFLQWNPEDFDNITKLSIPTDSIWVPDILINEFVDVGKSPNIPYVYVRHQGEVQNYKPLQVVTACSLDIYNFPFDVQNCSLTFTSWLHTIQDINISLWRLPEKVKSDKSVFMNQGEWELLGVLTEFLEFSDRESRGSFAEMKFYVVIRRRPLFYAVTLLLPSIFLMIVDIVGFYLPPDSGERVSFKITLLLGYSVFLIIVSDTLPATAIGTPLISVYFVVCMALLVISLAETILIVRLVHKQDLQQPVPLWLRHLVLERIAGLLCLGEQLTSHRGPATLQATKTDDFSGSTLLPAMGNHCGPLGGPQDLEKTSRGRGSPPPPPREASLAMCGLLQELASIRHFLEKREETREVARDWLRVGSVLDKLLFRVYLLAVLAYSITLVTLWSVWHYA", "experiment": "Intestinal 5-HT3 receptor antagonism (isolated distal colon, 2-methylserotonin-induced contraction)", "type": "cell-based, Hartley guinea pigs", "settings": "M (molar concentration of antagonist), isolated distal colon, 2-methylserotonin contraction", "procedure": "The test was conducted following the method of Miyata, et al. (The Journal of Pharmacology and Experimental Therapeutics Vol.259, No:1, 15 (1991)).\nMale Hartley guinea pigs with a body weight of 300-400 g were bled to death, the distal colon (3-10 cm from the anus) was isolated and suspended in a Magnus tube filled with Krebs solution aerated with a mixed gas (95% O2, 5% CO2), and subjected to a tensile load of 1 g. After constant contraction by cumulative addition of 2-methylserotonin (10^-6 -10^-4 M) was obtained, the test agent was added and the pA2 value of the test agent was calculated based on its inhibiting action on the initial value.\nThe value (pA2 value) is defined as the negative logarithm (-logM) of the molar concentration (M) of the antagonist required to reduce the effect of serotonin at a concentration of 2 times the 2-methylserotonin concentration (EC50) necessary to induce half of the maximum contraction reaction, to an effect induced by an EC50 of serotonin."}, "[3]": {"test_system": "gastric emptying", "experiment": "Accelerating effect on gastric emptying (cisplatin-reduced)", "type": "in vivo, SD rats", "settings": "oral, 30 min before cisplatin 10 mg/kg", "description": "Accelerating effect on gastric emptying\nSeven-week-old male SD rats which had been fasted for 24 hours were used. The effect on gastric emptying was studied in rats with reduced gastric emptying due to cisplatin. The rats were intragastrically administered the test feed (1.5% aqueous CMC solution containing 50 mg/100 ml phenol red) at 1.5 ml/rat, and after 15 minutes the stomachs were dissected, the residual amount of phenol red in the stomach was measured, in order to determine the gastric emptying in normal animals. A cisplatin-induced reduction in gastric emptying was measured by intraabdominal administration of cisplatin (10 mg/kg) 30 minutes prior to supplying the test feed. The test compound was also administered orally 30 minutes prior to the cisplatin administration to study the accelerating effect of the test compound on gastric emptying."}, "[4]": {"test_system": "stress-related diarrhea", "settings": "animal models; J. Pharmacol. Exp. Ther. 261, 297 (1992); cited from earlier work"}, "[5]": {"test_system": "restraint stress-induced diarrhea", "experiment": "Inhibiting effect on restraint stress-induced diarrhea (intraabdominal administration)", "type": "in vivo, Wistar rats", "settings": "30 μg/kg, 30 min before stress", "description": "Inhibiting effect on restraint stress-induced diarrhea (intraabdominal administration): This test was conducted in the same manner as Test 3. Nine- to ten-week-oldmale Wistar rats fasted overnight were placed in a stress case and their feces produced in 5 hours were observed. Of 15 rats, 14 developed diarrhea. The inhibiting effect on diarrhea was measured by intraabdominal administration of a test compound 30 minutes prior to placement in the stress cage."}, "[6]": {"test_system": "duodenal extension reflex", "experiment": "Inhibiting effect on duodenal extension reflex", "type": "in vivo, Wistar rats", "settings": "intravenous", "text": "Inhibiting effect on duodenal extension reflex: Unfasted male Wistar rats with a body weight of 300-390 g were opened at the abdomen under urethane anesthesia, and ligated at 2 locations, the gastric pyloric region and 3-4 cm directly under it, to create a duodenal loop. […] The beaker was raised at once to create a internal loop pressure of 75 cm H2, and the depressor reflex and effect of the test agent administration were observed. […] The test agent was then administrated intravenously, and at 5, 15 and 25 minutes after administration an extension stimulus was applied, the depressor reflex was observed, and the differences were expressed as percentages with respect to the initial value, to give the inhibition rates."}, "[7]": {"test_system": "vomiting", "settings": "The Japanese Journal of Pharmacology 57, 387-395 (1991); cited from earlier work"}, "[8]": {"test_system": "restrained stress-induced diarrhea", "experiment": "Inhibiting effect on restrained stress-induced diarrhea (oral administration)", "type": "in vivo, Wistar rats", "settings": "1 hour before stress", "description": "Inhibiting effect on restrained stress-induced diarrhea (oral administration): This test was conducted following the method of Miyata, et al. […] Nine-week-old male Wistar rats fasted overnight were placed in a stress cage and their feces produced in 5 hours were observed. Of 15 rats, 14 developed diarrhea. The inhibiting effect on diarrhea was measured by oral administration of the test compounds one hour prior to placement in the stress cage."}, "[9]": {"test_system": "cisplatin-induced vomiting", "experiment": "Inhibiting effect on cisplatin-induced vomiting", "type": "in vivo, ferrets", "settings": "oral, 1 hour before cisplatin; for No. of retching / No. of vomiting animals/No. of animals used / No. of vomitings: 6 hours", "text": "Inhibiting effect on cisplatin-induced vomiting:\nVomiting was induced in ferrets by administration of cisplatin. The inhibiting effect on this vomiting was observed. […] The test agents were orally administered one hour prior to cisplatin administration. […]"}, "[10]": {"test_system": "5-HT3 receptors in the upper intestine", "experiment": "Antagonism against 5-HT-induced intestinal secretion (jejunal loop)", "type": "in vivo, wister rats", "settings": "caudal vein, 15 min before serotonin", "description": "Antagonism against 5-HT-induced intestinal secretion:\nMale wister rats (8-11 weeks old) were anesthetized with urethane, and the abdomen was opened a polyethylene catheter was placed in the jejunum 5 cm distal to the duodenojejunal flexure and fixed by ligation. The second ligation was made at a distal point of 20 cm to create a jejunal loop. Two ml of physiological saline was injected into this loop and initiated continuous injection of physiological saline (0.1 ml/min) or 5-HT (3 μg/0.1 ml/kg/min, serotonin treated group) into the mesenteric artery through the mesenteric artery gastric branch, and after 30 minutes the jejunal loop was isolated, the residual fluid amount was measured, and the net fluid transfer per gram of tissue weight was calculated. The net fluid transfer was expressed as the fluid amount (weight) change in 30 minutes per jejunal tissue weight (g/30 min/g). A \"+\" was assigned when the fluid amount increased compared with 2 ml of physiological saline injected into the loop, and \"-\" when it decreased"}}}
{"compound": "Cl.Cn1cc(C(=O)[C@@H]2CCc3nc[nH]c3C2)c2ccccc21", "note": "[YM-060, (R)-(-)-5-[(1-methylindol-3-yl)carbonyl]-4,5,6,7-tetrahydrobenzimidazole hydrochloride, reference compound]", "values": [{"measurement": "ED50", "setting": "[1]", "result": "8.6e-05", "unit": "µmol/kg"}, {"measurement": "Kb", "setting": "[2]", "result": 4.5, "unit": "nM"}, {"measurement": "Gastric evacuation", "setting": "[3]; 0.3 μg/kg", "result": 51.8, "unit": "%"}, {"measurement": "Gastric evacuation", "setting": "[3]; 1.0 μg/kg", "result": 74.2, "unit": "%"}, {"measurement": "suppression of stress-related diarrhea (in words)", "setting": "[4]", "result": "suppress stress-related diarrhea in animal models, with the effect of YM-060 being the strongest"}, {"measurement": "Inhibition rate", "setting": "[5]", "result": 50, "unit": "%"}, {"measurement": "No. of animals with diarrhea/No. of animals used", "setting": "[5]", "result": "7/14"}, {"measurement": "Inhibition rate, 5-min value", "setting": "[6]; 1 μg/kg", "result": -27.9, "unit": "%"}, {"measurement": "Inhibition rate, 15-min value", "setting": "[6]; 1 μg/kg", "result": -30.8, "unit": "%"}, {"measurement": "Inhibition rate, 25-min value", "setting": "[6]; 1 μg/kg", "result": -14.8, "unit": "%"}, {"measurement": "Inhibition rate, 5-min value", "setting": "[6]; 10 μg/kg", "result": 16.3, "unit": "%"}, {"measurement": "Inhibition rate, 15-min value", "setting": "[6]; 10 μg/kg", "result": 6.3, "unit": "%"}, {"measurement": "Inhibition rate, 25-min value", "setting": "[6]; 10 μg/kg", "result": 7.9, "unit": "%"}, {"measurement": "antiemetic effect (in words)", "setting": "[7]", "result": "powerful antiemetic effect"}, {"measurement": "Inhibition rate", "setting": "[8]; 30 μg/kg", "result": 60, "unit": "%"}, {"measurement": "No. of animals with diarrhea/No. of animals used", "setting": "[8]; 30 μg/kg", "result": "4/10"}, {"measurement": "Inhibition rate", "setting": "[8]; 100 μg/kg", "result": 75, "unit": "%"}, {"measurement": "No. of animals with diarrhea/No. of animals used", "setting": "[8]; 100 μg/kg", "result": "2/8"}, {"measurement": "Latency* (time to initial retching)", "setting": "[9]; 0.3 μg", "result": 127.0, "unit": "min"}, {"measurement": "Latency** (time to initial vomiting)", "setting": "[9]; 0.3 μg", "result": 134.0, "unit": "min"}, {"measurement": "No. of retching", "setting": "[9]; 0.3 μg", "result": 126.0}, {"measurement": "No. of vomiting animals/No. of animals used", "setting": "[9]; 0.3 μg", "result": "2/2"}, {"measurement": "No. of vomitings", "setting": "[9]; 0.3 μg", "result": 6.5}, {"measurement": "Latency* (time to initial retching)", "setting": "[9]; 1.0 μg", "result": "> 272.2", "unit": "min"}, {"measurement": "Latency** (time to initial vomiting)", "setting": "[9]; 1.0 μg", "result": "> 303.0", "unit": "min"}, {"measurement": "No. of retching", "setting": "[9]; 1.0 μg", "result": 41.6}, {"measurement": "No. of vomiting animals/No. of animals used", "setting": "[9]; 1.0 μg", "result": "3/5"}, {"measurement": "No. of vomitings", "setting": "[9]; 1.0 μg", "result": 1.2}, {"measurement": "net fluid transfer in jejunal loop", "setting": "[10]; 1.0 μg/kg", "result": "-0.49 ± 0.06", "unit": "g/30 min/g tissue weight"}, {"measurement": "net fluid transfer in jejunal loop", "setting": "[10]; 10 μg/kg", "result": "-0.74 ± 0.09", "unit": "g/30 min/g tissue weight"}]}
